Results from patent US12453349B2, “Compositions comprising pyridine carboxylate herbicides and 4-hydroxyphenyl-pyruvate dioxygenase (HPPD) inhibitor herbicides” (Corteva Agriscience LLC, priority 2018, dated 2025).

Key:
Format in all cases: in vivo
[1] = system: TRZAS, Triticum aestivum (spring wheat); assay: Greenhouse postemergence phytotoxicity on crop, visual injury 20-22 d after application
Excerpt: (§1) Seeds of the desired test plant species were planted in a 90:10% v/v (volume/volume) mixture of PRO-MIX® BX (Premier Tech Horticulture, Quakertown, PA, USA) and PROFILE® GREENS GRADE™ (Profile Products LLC, Buffalo Grove, IL, USA) planting mixture, which typically has a pH of 5.2 to 6.2 and an organic matter content of at least 50 percent, in plastic pots with a surface area of 103.2 square centimeters (cm^2). In some aspects, to help ensure good germination and healthy plants, a fungicide treatment and/or other chemical or physical treatment was applied. The plants were grown for 7-36 days (d) in a greenhouse with an approximate 14-hour (h) photoperiod which was maintained at about 23° C. during the day and 22° C. during the night. Nutrients and water were added on a regular basis and supplemental lighting was provided with overhead metal halide 1000-Watt lamps as necessary. The plants were employed for testing when they reached the second or third true leaf stage.
(§2) Emulsifiable concentrates of each of each pyridine carboxylate herbicide (Compound A or Compound B) were prepared at 100 grams acid equivalent per liter (g ae/L). The emulsifiable concentrates also included a safener, cloquintocet mexyl, at 120 grams active ingredient per liter (g ai/L). An aliquot of each emulsifiable concentrate was placed in a 25 mL glass vial and diluted with an aqueous mixture of 1.25% (v/v) ACTIROB® B esterified rapeseed oil (Bayer Crop Science, Research Triangle Park, NC, USA) or MSO® Concentrate with LECI-TECH® methylated soybean oil (Loveland Products, Loveland, CO, USA) to obtain concentrated stock solutions at the highest application rate for each herbicide, based upon a 12 milliliter (mL) application volume at a rate of 187 liters per hectare (L/ha). The concentrated stock solutions were further diluted with an aqueous mixture of 1.25% v/v ACTIROB® B or MSO® Concentrate with LECI-TECH® to obtain stock solutions at reduced application rates for each herbicide. Spray solutions of the herbicide combinations (Compound A or Compound B plus HPPD inhibitor herbicide) were prepared by adding weighed amounts or aliquots of the HPPD inhibitor herbicides to the stock solutions of Compound A or Compound B to form 12-mL spray solutions in two-way combinations.
(§3) The spray solutions were applied to the plant material with an overhead Mandel track sprayer equipped with 8002E nozzles calibrated to deliver 187 L/ha over an application area of 0.503 square meters (m^2) at a spray height of 18 inches (43 centimeters (cm)) above the average plant canopy. Control plants were sprayed in the same manner with the solvent blank. All pyridine carboxylate herbicide (component a) application rates are given as “g ae/ha” and all HPPD inhibitor herbicide (component b) application rates are given as “g ai/ha.”
(§4) The treated plants and control plants were placed in a greenhouse as described above and watered by sub-irrigation to prevent wash-off of the test compounds. After 20-22 d, the condition of the test plants as compared with that of the control plants was determined visually and scored on a scale of 0 to 100 percent where 0 corresponds to no injury and 100 corresponds to complete kill.

[2] = system: HORVS, Hordeum vulgare (spring barley); assay: as above
Excerpt: as §1, §2, §3, §4

[3] = system: BRSNN, Brassica napus (spring rape); assay: Greenhouse postemergence herbicidal effect, visual injury 20-22 d after application; conditions: Sulcotrione 75 g ai/ha
Excerpt: as §1, §2, §3, §4

[4] = system: KCHSC, Kochia scoparia (kochia); assay: as above; conditions: Bassia scoparia, post-emergence, read-out: % visual injury Obs
Excerpt: as §1, §2, §3, §4

[5] = system: CHEAL, Chenopodium album L. (common lambsquarters); assay: as above
Excerpt: as §1, §2, §3, §4

[6] = system: CIRAR, Cirsium arvense (Canadian thistle); assay: as above
Excerpt: as §1, §2, §3, §4

[7] = system: POLCO, Polygonum convolvulus (wild buckwheat); assay: as above
Excerpt: as §1, §2, §3, §4

[8] = system: SINAR, Sinapis arvensis (wild mustard); assay: as above
Excerpt: as §1, §2, §3, §4

[9] = system: MATCH, Matricaria chamomilla (wild chamomile); assay: as above
Excerpt: as §1, §2, §3, §4

[10] = system: AMARE, Amaranthus retroflexus (pigweed); assay: as above
Excerpt: as §1, §2, §3, §4

[11] = system: BRSNW, Brassica napus (winter rape); assay: as above
Excerpt: as §1, §2, §3, §4

[12] = system: SASKR, Salsola kali (Russian thistle); assay: as above; conditions: Tembotrione 25 g ai/ha
Excerpt: as §1, §2, §3, §4

[13] = system: VIOTR, Viola tricolor (wild pansy); assay: as above
Excerpt: as §1, §2, §3, §4

[14] = system: ABUTH, Abutilon theophrasti (velvetleaf); assay: as above
Excerpt: as §1, §2, §3, §4

**Q.** What does the source list for `CS(=O)(=O)c1ccc(C(=O)C2C(=O)CCCC2=O)c(Cl)c1` [Sulcotrione, 2-[2-chloro-4-(methylsulfonyl)benzoyl]-1,3-cyclohexanedione]?
**A.** % visual injury Obs ([1]; Sulcotrione 75 g ai/ha): 0%; % visual injury Obs ([2]; Sulcotrione 75 g ai/ha): 8%; % visual injury Obs [3]: 75%; pest or weed control at 75 g/ha [4]: 30%

**Q.** What does the source list for `Cc1c(C(=O)c2cnn(C)c2O)ccc(S(C)(=O)=O)c1C1=NOCC1` [Topramezone, [3-(4,5-dihydro-3-isoxazolyl)-2-methyl-4-(methylsulfonyl)phenyl] (5-hydroxy-1-methyl-1H-pyrazol-4-yl) methanone]?
**A.** % visual injury Obs ([1]; Topramezone 40 g ai/ha): 33%; % visual injury Obs ([2]; Topramezone 40 g ai/ha): 38%; % visual injury Obs ([5]; Topramezone 40 g ai/ha): 100%; % visual injury Obs ([6]; Topramezone 40 g ai/ha): 20%; % visual injury Obs ([7]; Topramezone 40 g ai/ha): 43%; % visual injury Obs ([8]; Topramezone 40 g ai/ha): 100%; % visual injury Obs ([9]; Topramezone 40 g ai/ha): 30%; % visual injury Obs ([10]; Topramezone 40 g ai/ha): 100%; % visual injury Obs ([11]; Topramezone 40 g ai/ha): 98%; pest or weed control at 40 g/ha [4]: 35%

**Q.** For `CS(=O)(=O)c1ccc(C(=O)C2C(=O)CCCC2=O)c(Cl)c1COCC(F)(F)F` [Tembotrione, 2-[2-chloro-4-(methylsulfonyl)-3-[(2,2,2-trifluoroethoxy)methyl]benzoyl]-1,3-cyclohexanedione], which “% visual injury Obs” value ([5]; Tembotrione 25 g ai/ha) is on record?
**A.** 100%

**Q.** What about the “% visual injury Obs” value ([6]; Tembotrione 25 g ai/ha) of the same compound?
**A.** 75%

**Q.** What about the “% visual injury Obs” value ([7]; Tembotrione 25 g ai/ha) of the same compound?
**A.** 25%

**Q.** What about the “% visual injury Obs” value ([8]; Tembotrione 25 g ai/ha) of the same compound?
**A.** 95%

**Q.** What about the “% visual injury Obs” value ([9]; Tembotrione 25 g ai/ha) of the same compound?
**A.** 73%

**Q.** And the “% visual injury Obs” value ([10]; Tembotrione 25 g ai/ha)?
**A.** 100%

**Q.** What about the “% visual injury Obs” value ([11]; Tembotrione 25 g ai/ha) of the same compound?
**A.** 88%

**Q.** What about the pest or weed control at 25 g/ha ([4]; KCHSC, Tembotrione 25 g ai/ha) of the same compound?
**A.** 48%

**Q.** What about the “% visual injury Obs” value [12] of the same compound?
**A.** 78%

**Q.** How did the “% visual injury Obs” value ([6]; Compound B 7.5 g ae/ha) turn out when `C#CCOC(=O)c1nc(-c2ccc3cc[nH]c3c2F)c(F)c(N)c1Cl` [Compound B, propargyl 4-amino-3-chloro-5-fluoro-6-(7-fluoro-1H-indol-6-yl)pyridine-2-carboxylate] was run?
**A.** 45%

**Q.** What about the “% visual injury Obs” value ([6]; Compound B 10 g ae/ha) of the same compound?
**A.** 45%

**Q.** What about the “% visual injury Obs” value ([13]; Compound B 7.5 g ae/ha) of the same compound?
**A.** 10%

**Q.** And the “% visual injury Obs” value ([13]; Compound B 10 g ae/ha)?
**A.** 40%

**Q.** What about the “% visual injury Obs” value ([14]; Compound B 7.5 g ae/ha) of the same compound?
**A.** 68%

**Q.** What about the “% visual injury Obs” value ([14]; Compound B 10 g ae/ha) of the same compound?
**A.** 68%
